Measured values from ChEMBL document CHEMBL5120907, “Triculamin: An Unusual Lasso Peptide with Potent Antimycobacterial Activity” (J Nat Prod, 2022).
In brackets after ≈: the same amount, converted by molar mass. Where a SMILES comes first, the peptide text is derived from it. Bridges are numbered along the chain shown (N, C = ends).

Legend:
Acinetobacter baumannii [1] = assay: Antibacterial activity against Acinetobacter baumannii […] assessed as reduction in bacterial growth measured after 3 days by broth microdilution method; type: functional; conditions: 72 h, time 3 day
[2] = Stability of the compound assessed as carboxypeptidase Y mediated compound digestion pretreated at 95 degreeC for 4 hrs followed by protease addition incubated for 4 hrs by HPLC analysis; type: ADME
Bacillus cereus [3] = assay: Antibacterial activity against Bacillus cereus DSM 31 assessed as reduction in bacterial growth measured after 3 days by broth microdilution method; type: functional; conditions: DSM 31, 72 h, time 3 day
[4] = test system: Mycolicibacterium smegmatis; assay: Antibacterial activity against Mycobacterium smegmatis DSM 43080 assessed as reduction in bacterial growth measured after 3 days by broth microdilution method; type: functional; conditions: DSM 43080, 72 h, time 3 day
[5] = Thermal stability of compound in water assessed as antibacterial activity against Mycobacterium smegmatis DSM 43080 by measuring zone of inhibition incubated up to 8 hrs at 95 degreeC by agar diffusion assay; type: physicochemical; conditions: buffer
Enterobacter cloacae [6] = assay: Bactericidal activity against Enterobacter cloacae DSM 30054 assessed as reduction in colony count and measured after 3 days by agar diffusion assay; type: functional; conditions: DSM 30054, 72 h, time 3 day
Enterobacter cloacae [7] = assay: Antibacterial activity against Enterobacter cloacae DSM 30054 assessed as reduction in bacterial growth measured after 3 days by broth microdilution method; type: functional; conditions: DSM 30054, 72 h, time 3 day
[8] = test system: Mycolicibacterium smegmatis; assay: Antimycobacterial activity against Mycobacterium smegmatis DSM 43080 assessed as reduction in bacterial growth at mid-exponential phase at 10 times of MIC and measured up to 24 hrs by time killing assay; type: functional, organism-based; conditions: TDE = time-dependent effect
Bacillus cereus [9] = assay: Bactericidal activity against Bacillus cereus DSM 31 assessed as reduction in colony count and measured after 3 days by agar diffusion assay; type: functional; conditions: DSM 31, 72 h, time 3 day
Klebsiella oxytoca [10] = assay: Bactericidal activity against Klebsiella oxytoca DSM 5175 assessed as reduction in colony count and measured after 3 days by agar diffusion assay; type: functional; conditions: DSM 5175, 72 h, time 3 day
Staphylococcus aureus [11] = assay: Bactericidal activity against Staphylococcus aureus DSM 20231 assessed as reduction in colony count and measured after 3 days by agar diffusion assay; type: functional; conditions: DSM 20231, 72 h, time 3 day
Mycolicibacterium phlei [12] = assay: Bactericidal activity against Mycobacterium phlei DSM 43239 assessed as reduction in colony count and measured after 3 days by agar diffusion assay; type: functional; conditions: DSM 43239, 72 h, time 3 day
[13] = Thermal stability of compound in water incubated at 95 degreeC for 4 hrs by HPLC analysis; type: physicochemical; conditions: buffer
Staphylococcus aureus [14] = assay: Antibacterial activity against Staphylococcus aureus DSM 20231 assessed as reduction in bacterial growth measured after 3 days by broth microdilution method; type: functional; conditions: DSM 20231, 72 h, time 3 day
Enterococcus faecium [15] = assay: Bactericidal activity against Enterococcus faecium DSM 20477 assessed as reduction in colony count and measured after 3 days by agar diffusion assay; type: functional; conditions: DSM 20477, 72 h, time 3 day
[16] = Stability of the compound assessed as carboxypeptidase Y mediated compound digestion by measuring Mycobacterium smegmatis DSM 43080 zone of inhibition incubated for 4 hrs by agar diffusion assay; type: ADME
[17] = test system: Mycolicibacterium smegmatis; assay: Bactericidal activity against Mycobacterium smegmatis DSM 43080 assessed as reduction in colony count and measured after 3 days by agar diffusion assay; type: functional; conditions: DSM 43080, 72 h, time 3 day
Klebsiella oxytoca [18] = assay: Antibacterial activity against Klebsiella oxytoca DSM 5175 assessed as reduction in bacterial growth measured after 3 days by broth microdilution method; type: functional; conditions: DSM 5175, 72 h, time 3 day
[19] = test system: Mycolicibacterium smegmatis; assay: Antimycobacterial activity against Mycobacterium smegmatis DSM 43080 assessed as reduction in bacterial growth at late-exponential phase at 10 times of MIC measured up to 48 hrs by time killing assay; type: functional, organism-based; conditions: TDE = time-dependent effect
Acinetobacter baumannii [20] = assay: Bactericidal activity against Acinetobacter baumannii […] assessed as reduction in colony count and measured after 3 days by agar diffusion assay; type: functional; conditions: 72 h, time 3 day
Pseudomonas aeruginosa [21] = assay: Bactericidal activity against Pseudomonas aeruginosa DSM 19880 assessed as reduction in colony count and measured after 3 days by agar diffusion assay; type: functional; conditions: DSM 19880, 72 h, time 3 day
Mycolicibacterium phlei [22] = assay: Antibacterial activity against Mycobacterium phlei DSM 43239 assessed as reduction in bacterial growth measured after 3 days by broth microdilution method; type: functional; conditions: DSM 43239, 72 h, time 3 day
Pseudomonas aeruginosa [23] = assay: Antibacterial activity against Pseudomonas aeruginosa DSM 19880 assessed as reduction in bacterial growth measured after 3 days by broth microdilution method; type: functional; conditions: DSM 19880, 72 h, time 3 day
Enterococcus faecium [24] = assay: Antibacterial activity against Enterococcus faecium DSM 20477 assessed as reduction in bacterial growth measured after 3 days by broth microdilution method; type: functional; conditions: DSM 20477, 72 h, time 3 day

Compound | MIC (Acinetobacter baumannii [1]) [µg/mL] | MIC (Bacillus cereus [3]) [µg/mL] | MIC [4] [µg/mL] | MIC (Enterobacter cloacae [7]) [µg/mL] | MBC (Mycolicibacterium phlei [12]) [µg/mL] | MIC (Staphylococcus aureus [14]) [µg/mL] | MBC (Enterococcus faecium [15]) [µg/mL] | MBC [17] [µg/mL] | MIC (Klebsiella oxytoca [18]) [µg/mL] | MBC (Pseudomonas aeruginosa [21]) [µg/mL] | MIC (Mycolicibacterium phlei [22]) [µg/mL] | MIC (Pseudomonas aeruginosa [23]) [µg/mL] | MIC (Enterococcus faecium [24]) [µg/mL] | other results
CC[C@H](C)[C@H](NC(=O)CNC(=O)[C@@H]1CC(=O)N[C@@H](CO)C(=O)N[C@@H](CCCCN)C(=O)N[C@@H](CCCCN)C(=O)N[C@@H](CO)C(=O)N[C@@H](CCCCN)C(=O)N2CCC[C@H]2C(=O)NCC(=O)N1)C(=O)N[C@@H](CCCNC(=N)N)C(=O)NCC(=O)N[C@@H](CCCCN)C(=O)NCC(=O)N[C@H](C(=O)N[C@@H](CCCNC(=N)N)C(=O)NCC(=O)O)C(C)C (SKKSKPGDGIRGKGVRG-OH; lactam N-8) | > 32 | > 32 | 0.125 (≈ 0.0731 µM) | > 32 | > 0.125 | > 32 | > 32 | 0.5 (≈ 0.293 µM) | > 32 | > 32 | 0.03 (≈ 0.0176 µM) | > 32 | > 32 | Stability [2]: Stable; Stability [5]: Stable; MBC (Enterobacter cloacae [6]): > 32 µg/mL; Activity [8]: Tde; MBC (Bacillus cereus [9]): > 32 µg/mL; MBC (Klebsiella oxytoca [10]): > 32 µg/mL; MBC (Staphylococcus aureus [11]): > 32 µg/mL; Stability [13]: Stable; Stability [16]: Stable; Activity [19]: Tde; MBC (Acinetobacter baumannii [20]): > 32 µg/mL
NC[C@H]1O[C@H](O[C@H]2[C@H](O)[C@@H](O[C@H]3O[C@H](CO)[C@@H](O)[C@H](N)[C@H]3O)[C@H](N)C[C@@H]2N)[C@H](O)[C@@H](O)[C@@H]1O [KANAMYCIN] | 2 (≈ 4.13 µM) | 8 (≈ 16.5 µM) | 0.5 (≈ 1.03 µM) | 2 (≈ 4.13 µM) | 1 (≈ 2.06 µM) | 2 (≈ 4.13 µM) | > 32 | 0.5 (≈ 1.03 µM) | 2 (≈ 4.13 µM) | > 32 | 1 (≈ 2.06 µM) | > 32 | > 32 | –
CO[C@H]1/C=C/O[C@@]2(C)Oc3c(C)c(O)c4c(O)c(c(/C=N/N5CCN(C)CC5)c(O)c4c3C2=O)NC(=O)/C(C)=C\C=C\[C@H](C)[C@H](O)[C@@H](C)[C@@H](O)[C@@H](C)[C@H](OC(C)=O)[C@@H]1C [RIFAMPIN] | 1 (≈ 1.22 µM) | 0.25 (≈ 0.304 µM) | 8 (≈ 9.72 µM) | 16 (≈ 19.4 µM) | 0.06 (≈ 0.0729 µM) | 0.004 (≈ 0.00486 µM) | – | 8 (≈ 9.72 µM) | 4 (≈ 4.86 µM) | > 32 | 0.03 (≈ 0.0365 µM) | > 32 | 8 (≈ 9.72 µM) | –
